{"source": "patent US11203600B2", "about": "(Denali Therapeutics Inc., priority 2017, dated 2021)", "target": "GST-hRIPK1 (8-327) (Homo sapiens (Human), UniProt Q13546)", "sequence (Q13546 8-327)": "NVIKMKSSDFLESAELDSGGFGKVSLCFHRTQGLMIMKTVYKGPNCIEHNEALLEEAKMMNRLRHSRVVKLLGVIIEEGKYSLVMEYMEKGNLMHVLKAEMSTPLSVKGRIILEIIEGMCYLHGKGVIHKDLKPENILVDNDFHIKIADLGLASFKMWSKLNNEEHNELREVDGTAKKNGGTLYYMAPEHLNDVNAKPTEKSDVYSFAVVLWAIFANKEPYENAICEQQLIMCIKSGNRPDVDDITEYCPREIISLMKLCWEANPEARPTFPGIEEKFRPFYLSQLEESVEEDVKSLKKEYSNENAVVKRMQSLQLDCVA", "test": "Fluorescent Polarization Binding (FP Binding) assay, RIPK1", "conditions": "GST-hRIPK1 (8-327), mean of at least two independent experiments", "in_short": "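Compound displacement of 5 nM labelled ligand from 10 nM GST-hRIPK1 (8-327) was read as FP (531/595 nm) after 30 min at RT. Buffer: HEPES pH 7.5, NaCl, MgCl2, CHAPS, DTT, Pluronic; 1% DMSO final. IC50s were averaged over at least two independent runs.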", "data": [{"smiles": "N#Cc1cncc2c1OCCN(C(=O)C1CCN(c3ccnc4ccnn34)CC1(F)F)C2", "note": "(stereo not drawn) [Example 221, 4-(3,3-difluoro-1-pyrazolo[1,5-a]pyrimidin-7-yl-piperidine-4-carbonyl)-3,5-dihydro-2H-pyrido[3,4-f][1,4]oxazepine-9-carbonitrile]", "values": [{"measurement": "IC50", "value": "100 to 1000", "unit": "nM"}]}, {"smiles": "CC1(C(=O)N2CCOc3c(C#N)cncc3C2)CCN(c2nccn3ncnc23)CC1(F)F", "note": "(stereo not drawn) [Example 222, 4-[3,3-difluoro-4-methyl-1-([1,2,4]triazolo[1,5-a]pyrazin-8-yl)piperidine-4-carbonyl]-3,5-dihydro-2H-pyrido[3,4-f][1,4]oxazepine-9-carbonitrile]", "values": [{"measurement": "IC50", "value": "0.1 to 100", "unit": "nM"}]}, {"smiles": "Cn1nccc(N2CCC(C(=O)N3CCOc4c(C#N)cncc4C3)[C@@H](F)C2)c1=O", "note": "(stereo partly drawn) [Example 224, 4-[(3,4)-trans-3-fluoro-1-(2-methyl-3-oxo-pyridazin-4-yl)piperidine-4-carbonyl]-3,5-dihydro-2H-pyrido[3,4-f][1,4]oxazepine-9-carbonitrile]", "values": [{"measurement": "IC50", "value": "> 1000", "unit": "nM"}]}, {"smiles": "N#Cc1cncc2c1OCCN(C(=O)C1CCN(c3nccn4ncnc34)C[C@@H]1F)C2", "note": "(stereo partly drawn) [Example 225, 4-[(3,4)-trans-3-fluoro-1-([1,2,4]triazolo[1,5-a]pyrazin-8-yl)piperidine-4-carbonyl]-3,5-dihydro-2H-pyrido[3,4-f][1,4]oxazepine-9-carbonitrile]", "values": [{"measurement": "IC50", "value": "0.1 to 100", "unit": "nM"}]}, {"smiles": "N#Cc1cncc2c1OCCN(C(=O)C1CCN(c3ccnc4c(F)cnn34)C[C@@H]1F)C2", "note": "(stereo partly drawn) [Example 226, 4-[(3,4)-trans-3-fluoro-1-(3-fluoropyrazolo[1,5-a]pyrimidin-7-yl)piperidine-4-carbonyl]-3,5-dihydro-2H-pyrido[3,4-f][1,4]oxazepine-9-carbonitrile]", "values": [{"measurement": "IC50", "value": "0.1 to 100", "unit": "nM"}]}, {"smiles": "N#Cc1cncc2c1OCCN(C(=O)C1CCN(c3ccnc4c(Cl)cnn34)C[C@@H]1F)C2", "note": "(stereo partly drawn) [Example 227, 4-[1-(3-chloropyrazolo[1,5-a]pyrimidin-7-yl)-(3,4)-trans-3-fluoro-piperidine-4-carbonyl]-3,5-dihydro-2H-pyrido[3,4-f][1,4]oxazepine-9-carbonitrile]", "values": [{"measurement": "IC50", "value": "0.1 to 100", "unit": "nM"}]}, {"smiles": "N#Cc1cncc2c1OCCN(C(=O)C1CCN(c3ccnc4c(F)cnn34)CC1)C2", "note": "[Example 228, 4-[1-(3-fluoropyrazolo[1,5-a]pyrimidin-7-yl)piperidine-4-carbonyl]-3,5-dihydro-2H-pyrido[3,4-f][1,4]oxazepine-9-carbonitrile]", "values": [{"measurement": "IC50", "value": "0.1 to 100", "unit": "nM"}]}, {"smiles": "N#Cc1cncc2c1OCCN(C(=O)C1CCN(c3ccnc4c(Cl)cnn34)CC1)C2", "note": "[Example 229, 4-[1-(3-chloropyrazolo[1,5-a]pyrimidin-7-yl)piperidine-4-carbonyl]-3,5-dihydro-2H-pyrido[3,4-f][1,4]oxazepine-9-carbonitrile]", "values": [{"measurement": "IC50", "value": "0.1 to 100", "unit": "nM"}]}, {"smiles": "N#Cc1cncc2c1OCC1(CC1)N(C(=O)C1CCN(c3ncc(F)cn3)CC1)C2", "note": "[Example 230, 4-[1-(5-fluoropyrimidin-2-yl)piperidine-4-carbonyl]spiro[2,5-dihydropyrido[3,4-f][1,4]oxazepine-3,1′-cyclopropane]-9-carbonitrile]", "values": [{"measurement": "IC50", "value": "100 to 1000", "unit": "nM"}]}, {"smiles": "N#Cc1cncc2c1OCCN(C(=O)C1CCN(c3ncc(F)cn3)CCO1)C2", "note": "(stereo not drawn) [Example 231, 4-[4-(5-fluoropyrimidin-2-yl)-1,4-oxazepane-7-carbonyl]-3,5-dihydro-2H-pyrido[3,4-f][1,4]oxazepine-9-carbonitrile]", "values": [{"measurement": "IC50", "value": "> 1000", "unit": "nM"}]}, {"smiles": "COc1cc(C(F)(F)F)nc(N2CCC(F)(C(=O)N3CCOc4c(C#N)cncc4C3)CC2)n1", "note": "[Example 232, 4-[4-fluoro-1-[4-methoxy-6-(trifluoromethyl)pyrimidin-2-yl]piperidine-4-carbonyl]-3,5-dihydro-2H-pyrido[3,4-f][1,4]oxazepine-9-carbonitrile]", "values": [{"measurement": "IC50", "value": "100 to 1000", "unit": "nM"}]}, {"smiles": "COC1(C(=O)N2CCOc3c(C#N)cncc3C2)CCN(c2ncc(F)c(C3CC3)n2)CC1", "note": "[Example 233, 4-[1-(4-cyclopropyl-5-fluoro-pyrimidin-2-yl)-4-methoxy-piperidine-4-carbonyl]-3,5-dihydro-2H-pyrido[3,4-f][1,4]oxazepine-9-carbonitrile]", "values": [{"measurement": "IC50", "value": "0.1 to 100", "unit": "nM"}]}]}
